pIC50: −log10 of the molar value.
Target: human c-MER catalytic domain (Homo sapiens (Human), UniProt Q12866)
Assay: TR-FRET Kinase Activity Biochemical Assay (LanthaScreen)
Conditions: 10 uM ATP, 1 hour, kinase not given
Outline: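 Activity was quantified as the ratio of 495 nm to 520 nm emission (excitation 340 nm) in a LanthaScreen TR-FRET format. The enzyme was the human c-MER catalytic domain, and the substrate was fluorescein-poly-GT. Detection used 2 nM Tb anti-phosphotyrosine antibody for 30 min after termination with 10 mM EDTA.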

Chain of human c-MER catalytic domain (Q12866 587-858): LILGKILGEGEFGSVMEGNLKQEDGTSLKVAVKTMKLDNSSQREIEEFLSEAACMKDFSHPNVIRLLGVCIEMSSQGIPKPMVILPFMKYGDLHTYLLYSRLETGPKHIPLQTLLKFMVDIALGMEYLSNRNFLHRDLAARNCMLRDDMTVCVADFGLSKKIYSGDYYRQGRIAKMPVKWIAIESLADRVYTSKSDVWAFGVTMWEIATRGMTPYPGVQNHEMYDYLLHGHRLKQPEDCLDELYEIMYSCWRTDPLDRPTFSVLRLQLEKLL

| Compound | pIC50 |
| --- | --- |
| Nc1ncc(-c2ccc(C(=O)NCCCN3CCCC3=O)cc2)cc1C(=O)N[C@@H]1CCN(C(=O)c2ccc(-c3ccccc3Cl)cc2)C1 [Example 595, (R)-2-amino-N-(1-(2′-chloro-[1,1′-biphenyl]-4-carbonyl)pyrrolidin-3-yl)-5-(4-((3-(2-oxopyrrolidin-1-yl)propyl)carbamoyl)phenyl)nicotinamide] | 7.00 to 8.00 |
| Cn1cc(-c2cnc(N)c(C(=O)N[C@@H]3CCN(C(=O)c4cn(-c5ccccc5)nc4C(F)(F)F)C3)c2)cn1 [Example 516, (R)-2-amino-5-(1-methyl-1H-pyrazol-4-yl)-N-(1-(1-phenyl-3-(trifluoromethyl)-1H-pyrazole-4-carbonyl)pyrrolidin-3-yl)nicotinamide] | < 6.00 |
| Cn1cc(-c2cnc(N)c(C(=O)N[C@@H]3CCN(C(=O)c4nn(C)c5ccccc45)C3)c2)cn1 [Example 499, (R)-2-amino-N-(1-(1-methyl-1H-indazole-3-carbonyl)pyrrolidin-3-yl)-5-(1-methyl-1H-pyrazol-4-yl)nicotinamide] | 6.00 to 7.00 |
| CN1CCN(Cc2ccc(-c3cnc(N)c(C(=O)N[C@@H]4CCN(C(=O)Nc5cccc(-c6ccccc6)c5)C4)c3)cc2)CC1 [Example 37, (R)—N-(1-([1,1′-biphenyl]-3-ylcarbamoyl)pyrrolidin-3-yl)-2-amino-5-(4-((4-methylpiperazin-1-yl)methyl)phenyl)nicotinamide] | 7.00 to 8.00 |
| Cn1cc(-c2cnc(N)c(C(=O)N[C@@H]3CCN(C(=S)Nc4ccc(N5CCOCC5)cc4)C3)c2)cn1 [Example 49, (R)-2-amino-5-(1-methyl-1H-pyrazol-4-yl)-N-(1-((4-morpholinophenyl)carbamothioyl)pyrrolidin-3-yl)nicotinamide] | 6.00 to 7.00 |
| CC(/C=C/c1ccc(C(=O)N2CC[C@@H](NC(=O)c3cc(-c4cnn(C)c4)cnc3N)C2)cc1)N1CCN(C)CC1 (stereo partly drawn) [Example 822, 2-amino-5-(1-methyl-1H-pyrazol-4-yl)-N-((3R)-1-(4-((E)-3-(4-methylpiperazin-1-yl)but-1-en-1-yl)benzoyl)pyrrolidin-3-yl)nicotinamide] | > 8.00 |
| Cn1cc(-c2cnc(N)c(C(=O)N[C@@H]3CCN(C(=O)c4cccc(-c5cnn(S(=O)(=O)c6ccccc6)c5)c4)C3)c2)cn1 [Example 717, (R)-2-amino-5-(1-methyl-1H-pyrazol-4-yl)-N-(1-(3-(1-(phenylsulfonyl)-1H-pyrazol-4-yl)benzoyl)pyrrolidin-3-yl)nicotinamide] | < 6.00 |
| Cn1cc(-c2cnc(N)c(C(=O)N[C@@H]3CCN(C(=O)Oc4cccc(-c5cccc(CN6CC[C@@H](N)C6)c5)c4)C3)c2)cn1 [Example 336, 3′-(((R)-3-aminopyrrolidin-1-yl)methyl)-[1,1′-biphenyl]-3-yl (R)-3-(2-amino-5-(1-methyl-1H-pyrazol-4-yl)nicotinamido)pyrrolidine-1-carboxylate] | 6.00 to 7.00 |
| Cn1cc(-c2cnc(N)c(C(=O)N[C@@H]3CCN(C(=O)Oc4cccc(-c5ccc(CN6CCCC6)cc5)c4)C3)c2)cn1 [Example 333, 4′-(pyrrolidin-1-ylmethyl)-[1,1′-biphenyl]-3-yl (R)-3-(2-amino-5-(1-methyl-1H-pyrazol-4-yl)nicotinamido)pyrrolidine-1-carboxylate] | 7.00 to 8.00 |
| Cn1cc(-c2cnc(N)c(C(=O)N[C@@H]3CCN(C(=O)Oc4cc(Cl)cc(-c5ccc(CO)cc5)c4)C3)c2)cn1 [Example 291, 5-chloro-4′-(hydroxymethyl)-[1,1′-biphenyl]-3-yl (R)-3-(2-amino-5-(1-methyl-1H-pyrazol-4-yl)nicotinamido)pyrrolidine-1-carboxylate] | 7.00 to 8.00 |
| Nc1ncc(-c2ccc(C(=O)N3CCOCC3)cc2)cc1C(=O)N[C@@H]1CCN(C(=O)Nc2cc(Cl)cc(Cl)c2)C1 [Example 9, (R)-2-amino-N-(1-((3,5-dichlorophenyl)carbamoyl)pyrrolidin-3-yl)-5-(4-(morpholine-4-carbonyl)phenyl)nicotinamide] | 7.00 to 8.00 |
